# US9017692B2, “Antimicrobial agent, bacterial strain, biosynthesis, and methods of use” (priority 2011, dated 2015)
# What was measured:
# [1] = test system: Listeria monocytogenes Scott A; assay: MIC, CLSI broth microdilution, foodborne pathogens; type: cell-based
# Description: (§1) Plates were incubated at 35° C. for 24 h.
# [2] = test system: Bacillus cereus ATCC14579; assay: MIC, CLSI broth microdilution, foodborne pathogens; type: cell-based
# Description: as §1
# [3] = test system: Escherichia coli O157:H7 EDL933; assay: MIC, CLSI broth microdilution, foodborne pathogens; type: cell-based
# Description: as §1
# [4] = test system: Yersinia enterocolitica; assay: MIC, CLSI broth microdilution, foodborne pathogens; type: cell-based
# Description: as §1
# [5] = test system: S. enterica ser. Typhimurium DT 109; assay: Spot-on-lawn antimicrobial activity; type: cell-based, Salmonella enterica; details: TSBYE
# Description: (§2) Spot-on-lawn method [He, Z., et al., Appl. Environ. Microbiol., (2007) 73:168-178] was used for the bioassay of antimicrobial activity. Bacterial indicators were incubated at 37° C. for 24 h, except Pseudomonas putida, Clostridium difficile and methycillin resistant Staphylococcus aureus which were incubated for 48 h (Table 1). The indicator overlay was prepared by pouring 10 ml soft agar (seeded with 10 μL indicator culture) onto tryptose agar as basal medium in a petri dish. Purified antimicrobials were two-fold serially diluted and aliquots (10 μL each) were spotted onto the soft agar. The plates were incubated overnight and inspected for the presence of growth inhibition zones. Antimicrobial activity was expressed in arbitrary units (AU)/mL; this value is the reciprocal of the highest dilution displaying a zone of inhibition corresponding to 1 mL of the non-diluted antimicrobial preparation.
# (§3) Purified paenibacterin was used for the antimicrobial spectrum test. Microorganisms tested for sensitivity to this compound included pathogenic (e.g., Salmonella Typhimurium, Escherichia coli O157:H7, Listeria monocytogenes, and Staphylococcus aureus) and non-pathogenic (e.g., Escherichia coli K-12, Pseudomonas putida, and Enterococcus faecalis) bacteria (Table 1).
# [6] = test system: S. enterica ser. Enteritidis; assay: Spot-on-lawn antimicrobial activity; type: cell-based, Salmonella enterica; details: TSBYE
# Description: as §2, §3
# [7] = test system: DR-MRSA from MW2 SP SAU.1616; assay: microbe, parasite or virus in culture; details: SAU.1616, DR-MRSA from MW2 SP; NBS 96-well plates
# Description: (§4) The activity of paenibacterin against several strains of Gram-positive and Gram-negative foodborne pathogens is summarized in Table 10. The data is reported as minimum inhibitory concentrations (MIC) as an average of three replicates for paenibacterin against the various listed bacterial strains. […] MICs were determined according to the CLSI broth microdilution method (see, Clinical and Laboratory Standards Institute (CLSI). 2009. Methods for dilution antimicrobial susceptibility tests for bacteria that grow aerobically; approved standard. […]. CLSI, Wayne, Pa.). Briefly, HPLC-purified paenibacterin was dissolved in methanol and diluted to appropriate concentration with cation-adjusted Mueller-Hinton II broth (Difco). Aliquots (25 μl) of serially-diluted paenibacterin was dispensed into wells of a 96-well plate; an equal amount of 1/10 diluted overnight bacterial culture was added to wells. Plates were incubated at 35° C. for 24 h. Cell growth after incubation was examined and determined using a microtiter plate reader at 600 nm. Concentration of paenibacterin is determined based on a molecular weight of 1604 Da.
# (§5) The activity of paenibacterin was further tested against clinical isolates of the following Gram-positive bacteria: methicillin-sensitive Staphylococcus aureus (MSSA), methicillin-resistant S. aureus (MRSA), vancomycin-sensitive Enterococcus faecalis, vancomycin-resistant E. faecalis (VRE), Streptococcus pneumoniae, and laboratory derived daptomycin-resistant (DR) MSSA, MRSA, and VRE strains. The MICs were determined using the above described CLSI broth microdilution method, in which the method was performed with non-binding surface coated (NBS) 96-well plates.
# [8] = test system: WT ATCC 29212 EFS.43; assay: microbe, parasite or virus in culture; details: EFS.43, WT ATCC 29212; NBS 96-well plates
# Description: as §4, §5
# [9] = test system: DR-VRE from EFS.807 EFS.2731; assay: microbe, parasite or virus in culture; details: EFS.2731, DR-VRE from EFS.807; NBS 96-well plates
# Description: as §4, §5
# [10] = test system: MRSA ATCC 43300 SAU.399; assay: microbe, parasite or virus in culture; details: SAU.399, MRSA ATCC 43300; NBS 96-well plates
# Description: as §4, §5
# [11] = test system: DR-MSSA from SAU.42 SAU.278; assay: microbe, parasite or virus in culture; details: SAU.278, DR-MSSA from SAU.42; NBS 96-well plates
# Description: as §4, §5
# [12] = test system: MSSA ATCC 29213 SAU.42; assay: microbe, parasite or virus in culture; details: SAU.42, MSSA ATCC 29213; NBS 96-well plates
# Description: as §4, §5
# [13] = test system: DS-VRE ATCC 700802 EFS.807; assay: microbe, parasite or virus in culture; details: EFS.807, DS-VRE ATCC 700802; NBS 96-well plates
# Description: as §4, §5
# [14] = test system: WT ATCC 49619 SPN.31; assay: microbe, parasite or virus in culture; details: SPN.31, WT ATCC 49619; NBS 96-well plates
# Description: as §4, §5
# [15] = test system: Enterococcus faecalis; assay: MIC, summary of Table 13; type: cell-based; details: Enterococcus faecalis strains of Table 13; NBS plates
# Description: as §4, §5
# [16] = test system: Streptococcus pneumoniae; assay: MIC, summary of Table 13; type: cell-based; details: NBS plates
# Description: as §4, §5
# [17] = test system: Staphylococcus aureus; assay: MIC, summary of Table 13; type: cell-based; details: Staphylococcus aureus strains of Table 13; NBS plates
# Description: as §4, §5
# [18] = based on molecular weight of 1604 Da
substance,measurement,setting,value
paenibacterin,Minimum inhibitory concentration (MIC) Average,[1]; average of three replicates,1.95 µg/mL
same,Minimum inhibitory concentration (MIC) Average,[1]; [18],1.22 µM
same,Minimum inhibitory concentration (MIC) Average,[2]; average of three replicates,15.6 µg/mL
same,Minimum inhibitory concentration (MIC) Average,[2]; [18],9.74 µM
same,Minimum inhibitory concentration (MIC) Average,[3]; average of three replicates,7.81 µg/mL
same,Minimum inhibitory concentration (MIC) Average,[3]; [18],4.87 µM
same,Minimum inhibitory concentration (MIC) Average,[4]; average of three replicates,3.26 µg/mL
same,Minimum inhibitory concentration (MIC) Average,[4]; [18],2.03 µM
same,Antimicrobial activity (AU/ml),[5],400 AU/ml
same,Antimicrobial activity (AU/ml),[6],800 AU/ml
same,Minimum inhibitory concentration (MIC),[7],32 µg/mL
same,Minimum inhibitory concentration (MIC),[8],32 to 64 µg/mL
same,Minimum inhibitory concentration (MIC),[9],8 µg/mL
same,Minimum inhibitory concentration (MIC),[10],32 µg/mL
same,Minimum inhibitory concentration (MIC),[11],64 µg/mL
same,Minimum inhibitory concentration (MIC),[12],32 µg/mL
same,Minimum inhibitory concentration (MIC),[13],64 µg/mL
same,Minimum inhibitory concentration (MIC),[14],64 µg/mL
same,MIC,[15],32 to 64 µg/mL
same,MIC,[16],32 to 64 µg/mL
same,MIC,[17],32 to 64 µg/mL
